Measurements published in the kinase profiling compilation of Christmann-Franck et al. (2016).

Experiments:
Test in all cases: radiometric filter-binding kinase assay
HIPK3 (human) = HIPK3 (human) (UniProt Q9H422); details: compound 1.0 µM
[1] = tested on: AKT1 (human), P31749 [S473D]
MARK4 (human) = MARK4 (human) (UniProt Q96L34)
EPHA2 (human) = EPHA2 (human) (UniProt P29317)
MAP3K11 (human) = MAP3K11 (human) (UniProt Q16584)
MAPKAPK2 (human) = MAPKAPK2 (human) (UniProt P49137)
[2] = target: STK11 CAB39 STRADA (human) (UniProt Q9Y376+Q7RTN6+Q15831)
Sequence of STK11 CAB39 STRADA (human) (Q15831 whole entry, looked up): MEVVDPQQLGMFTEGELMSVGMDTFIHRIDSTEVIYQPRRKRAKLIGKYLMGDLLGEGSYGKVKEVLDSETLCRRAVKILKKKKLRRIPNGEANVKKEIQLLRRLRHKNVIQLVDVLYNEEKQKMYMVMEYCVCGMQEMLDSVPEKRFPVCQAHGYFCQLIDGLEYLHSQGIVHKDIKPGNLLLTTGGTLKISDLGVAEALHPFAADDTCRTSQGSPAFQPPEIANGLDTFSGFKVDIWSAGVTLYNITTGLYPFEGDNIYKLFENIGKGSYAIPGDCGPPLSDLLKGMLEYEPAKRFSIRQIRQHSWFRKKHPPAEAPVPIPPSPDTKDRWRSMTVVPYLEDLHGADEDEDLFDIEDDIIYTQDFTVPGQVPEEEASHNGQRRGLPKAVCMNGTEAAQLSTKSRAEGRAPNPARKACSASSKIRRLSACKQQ
Sequence of STK11 CAB39 STRADA (human) (Q7RTN6 whole entry, looked up): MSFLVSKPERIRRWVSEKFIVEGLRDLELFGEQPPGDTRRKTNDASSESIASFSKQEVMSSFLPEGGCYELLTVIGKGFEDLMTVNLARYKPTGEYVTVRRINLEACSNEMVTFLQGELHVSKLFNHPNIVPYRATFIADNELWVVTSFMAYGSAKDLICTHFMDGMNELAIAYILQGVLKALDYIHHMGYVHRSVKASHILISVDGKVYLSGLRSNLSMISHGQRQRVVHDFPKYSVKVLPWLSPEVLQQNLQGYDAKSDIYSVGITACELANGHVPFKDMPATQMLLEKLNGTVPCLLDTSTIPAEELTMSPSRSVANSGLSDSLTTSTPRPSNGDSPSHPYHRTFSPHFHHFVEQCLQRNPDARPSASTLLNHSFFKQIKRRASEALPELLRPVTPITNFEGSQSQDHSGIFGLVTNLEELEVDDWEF
Sequence of STK11 CAB39 STRADA (human) (Q9Y376 whole entry, looked up): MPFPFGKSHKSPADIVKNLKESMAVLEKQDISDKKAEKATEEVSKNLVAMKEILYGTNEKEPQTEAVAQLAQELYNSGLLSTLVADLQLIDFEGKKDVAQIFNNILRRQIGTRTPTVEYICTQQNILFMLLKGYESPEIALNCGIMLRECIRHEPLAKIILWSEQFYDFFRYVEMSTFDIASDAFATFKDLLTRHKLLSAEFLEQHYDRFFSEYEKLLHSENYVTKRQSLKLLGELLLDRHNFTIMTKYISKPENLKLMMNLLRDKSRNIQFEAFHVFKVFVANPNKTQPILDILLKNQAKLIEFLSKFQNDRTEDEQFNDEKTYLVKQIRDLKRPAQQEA

INSR (human) = INSR (human) (UniProt P06213)
PKN2 (human) = PKN2 (human) (UniProt Q16513)
PRKCZ (human) = PRKCZ (human) (UniProt Q05513)
PAK4 (human) = PAK4 (human) (UniProt O96013)
MAP3K9 (human) = MAP3K9 (human) (UniProt P80192)
Sequence of MAP3K9 (human) (P80192 whole entry, looked up): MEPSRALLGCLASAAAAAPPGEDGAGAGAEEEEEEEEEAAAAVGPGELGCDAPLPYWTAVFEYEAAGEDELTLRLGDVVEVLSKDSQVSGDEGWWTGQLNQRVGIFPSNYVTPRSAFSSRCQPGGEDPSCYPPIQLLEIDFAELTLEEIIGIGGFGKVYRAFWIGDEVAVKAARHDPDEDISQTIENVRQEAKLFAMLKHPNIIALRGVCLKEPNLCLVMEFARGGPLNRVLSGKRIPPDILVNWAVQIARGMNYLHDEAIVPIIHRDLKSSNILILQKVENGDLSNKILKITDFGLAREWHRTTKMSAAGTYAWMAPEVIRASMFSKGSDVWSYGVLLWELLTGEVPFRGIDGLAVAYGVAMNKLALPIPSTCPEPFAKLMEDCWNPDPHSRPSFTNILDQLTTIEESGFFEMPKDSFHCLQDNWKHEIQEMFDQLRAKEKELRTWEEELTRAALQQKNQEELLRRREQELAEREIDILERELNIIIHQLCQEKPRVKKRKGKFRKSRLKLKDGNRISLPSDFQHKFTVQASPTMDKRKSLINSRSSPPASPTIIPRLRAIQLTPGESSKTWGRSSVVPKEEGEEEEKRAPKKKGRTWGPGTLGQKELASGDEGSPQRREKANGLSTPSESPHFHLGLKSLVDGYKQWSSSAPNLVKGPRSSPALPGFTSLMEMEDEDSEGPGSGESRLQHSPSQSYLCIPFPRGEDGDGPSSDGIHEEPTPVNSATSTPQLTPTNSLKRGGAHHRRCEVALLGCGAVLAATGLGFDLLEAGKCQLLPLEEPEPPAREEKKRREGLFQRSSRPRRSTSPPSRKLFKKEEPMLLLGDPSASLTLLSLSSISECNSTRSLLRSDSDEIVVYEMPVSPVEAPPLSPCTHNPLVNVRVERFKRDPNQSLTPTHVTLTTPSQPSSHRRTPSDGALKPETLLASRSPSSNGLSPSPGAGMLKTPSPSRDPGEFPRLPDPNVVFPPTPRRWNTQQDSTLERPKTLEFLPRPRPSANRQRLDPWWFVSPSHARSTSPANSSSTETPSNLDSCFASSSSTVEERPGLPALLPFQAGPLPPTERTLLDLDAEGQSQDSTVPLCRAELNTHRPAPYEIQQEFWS

PRKCA (human) = PRKCA (human) (UniProt P17252)
MAP3K5 (human) = MAP3K5 (human) (UniProt Q99683)
MAP2K2 (human) = MAP2K2 (human) (UniProt P36507)
Sequence of MAP2K2 (human) (P36507 whole entry, looked up): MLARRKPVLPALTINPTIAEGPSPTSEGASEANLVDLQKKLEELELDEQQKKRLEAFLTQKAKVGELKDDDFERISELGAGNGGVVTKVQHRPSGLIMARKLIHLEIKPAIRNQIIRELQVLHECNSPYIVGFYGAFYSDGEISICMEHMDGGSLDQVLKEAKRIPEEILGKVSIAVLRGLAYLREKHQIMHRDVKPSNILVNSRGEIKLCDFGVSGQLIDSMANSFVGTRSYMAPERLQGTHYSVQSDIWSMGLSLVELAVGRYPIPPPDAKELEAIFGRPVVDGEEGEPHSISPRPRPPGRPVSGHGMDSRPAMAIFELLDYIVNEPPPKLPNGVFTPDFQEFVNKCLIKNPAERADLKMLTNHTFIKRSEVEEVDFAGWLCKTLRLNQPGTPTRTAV

IRAK4 (human) = IRAK4 (human) (UniProt Q9NWZ3)
MAPK12 (human) = MAPK12 (human) (UniProt P53778)
Sequence of MAPK12 (human) (P53778 whole entry, looked up): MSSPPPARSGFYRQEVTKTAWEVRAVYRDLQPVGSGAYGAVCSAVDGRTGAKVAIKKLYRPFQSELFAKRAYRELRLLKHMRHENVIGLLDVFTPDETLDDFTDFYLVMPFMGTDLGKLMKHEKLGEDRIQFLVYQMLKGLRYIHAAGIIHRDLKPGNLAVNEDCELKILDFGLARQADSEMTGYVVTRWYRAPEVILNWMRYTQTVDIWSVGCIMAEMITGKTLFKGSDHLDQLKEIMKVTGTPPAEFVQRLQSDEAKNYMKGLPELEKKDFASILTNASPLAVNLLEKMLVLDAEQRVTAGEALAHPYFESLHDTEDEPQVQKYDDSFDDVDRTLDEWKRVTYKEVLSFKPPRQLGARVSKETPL

EEF2K (human) = EEF2K (human) (UniProt O00418)

Sequence of EPHA2 (human) (P29317 whole entry, looked up): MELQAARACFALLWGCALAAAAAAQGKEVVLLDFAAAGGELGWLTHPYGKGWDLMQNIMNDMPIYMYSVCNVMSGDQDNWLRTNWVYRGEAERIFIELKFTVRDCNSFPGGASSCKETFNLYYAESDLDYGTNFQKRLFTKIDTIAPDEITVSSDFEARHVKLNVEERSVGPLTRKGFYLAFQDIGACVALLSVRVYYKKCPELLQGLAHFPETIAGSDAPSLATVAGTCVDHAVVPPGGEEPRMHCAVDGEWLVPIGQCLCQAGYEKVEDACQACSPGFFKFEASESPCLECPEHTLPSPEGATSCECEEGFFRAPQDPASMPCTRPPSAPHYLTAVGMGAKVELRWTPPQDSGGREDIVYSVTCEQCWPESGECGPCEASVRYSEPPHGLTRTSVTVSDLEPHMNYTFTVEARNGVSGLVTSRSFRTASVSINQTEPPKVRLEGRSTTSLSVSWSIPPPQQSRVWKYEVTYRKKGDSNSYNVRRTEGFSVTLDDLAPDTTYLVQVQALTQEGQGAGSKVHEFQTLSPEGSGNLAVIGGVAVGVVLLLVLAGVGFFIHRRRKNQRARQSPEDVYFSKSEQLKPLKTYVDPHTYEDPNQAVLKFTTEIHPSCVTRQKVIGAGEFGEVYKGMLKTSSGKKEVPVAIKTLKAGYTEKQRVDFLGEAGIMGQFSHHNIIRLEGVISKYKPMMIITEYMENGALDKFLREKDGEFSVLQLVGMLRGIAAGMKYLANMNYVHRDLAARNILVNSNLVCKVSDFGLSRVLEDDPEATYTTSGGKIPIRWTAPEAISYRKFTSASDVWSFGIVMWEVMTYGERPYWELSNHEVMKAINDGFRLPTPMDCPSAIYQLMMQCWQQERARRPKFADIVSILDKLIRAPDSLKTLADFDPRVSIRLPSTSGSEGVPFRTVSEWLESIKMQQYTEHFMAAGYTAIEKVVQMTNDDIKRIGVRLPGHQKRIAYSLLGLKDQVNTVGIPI
Sequence of MAPKAPK2 (human) (P49137 whole entry, looked up): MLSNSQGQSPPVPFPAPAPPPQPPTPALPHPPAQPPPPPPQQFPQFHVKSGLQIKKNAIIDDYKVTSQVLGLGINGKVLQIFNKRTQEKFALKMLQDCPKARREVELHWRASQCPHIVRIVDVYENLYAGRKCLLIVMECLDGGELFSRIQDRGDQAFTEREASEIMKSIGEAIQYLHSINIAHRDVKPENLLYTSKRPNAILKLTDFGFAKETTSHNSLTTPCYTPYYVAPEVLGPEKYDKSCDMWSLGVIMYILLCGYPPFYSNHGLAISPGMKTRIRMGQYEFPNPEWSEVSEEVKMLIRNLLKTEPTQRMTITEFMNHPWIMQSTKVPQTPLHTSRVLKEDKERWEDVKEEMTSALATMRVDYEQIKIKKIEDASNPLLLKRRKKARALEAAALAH
Sequence of AKT1 (human), P31749 [S473D] (P31749 whole entry S473D, looked up): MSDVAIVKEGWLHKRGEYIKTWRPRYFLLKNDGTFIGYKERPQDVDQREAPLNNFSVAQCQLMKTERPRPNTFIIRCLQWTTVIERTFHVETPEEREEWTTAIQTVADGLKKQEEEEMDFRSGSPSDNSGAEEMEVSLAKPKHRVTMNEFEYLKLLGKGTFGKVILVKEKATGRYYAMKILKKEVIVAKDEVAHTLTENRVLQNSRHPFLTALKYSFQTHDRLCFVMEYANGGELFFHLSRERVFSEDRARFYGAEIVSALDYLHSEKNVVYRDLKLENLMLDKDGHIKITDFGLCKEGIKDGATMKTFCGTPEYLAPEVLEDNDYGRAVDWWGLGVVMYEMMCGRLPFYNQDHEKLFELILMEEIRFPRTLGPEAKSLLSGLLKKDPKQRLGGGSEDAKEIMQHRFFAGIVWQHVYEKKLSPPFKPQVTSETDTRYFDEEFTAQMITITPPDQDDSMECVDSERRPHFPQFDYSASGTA

COc1ccc(N(C(=O)Nc2c(C)cccc2C)c2cc(Nc3ccc(N4CCN(C)CC4)cc3)ncn2)c(OC)c1
residual activity (HIPK3 (human)): 74% | residual activity ([1]; compound 0.01 µM): 98% | residual activity ([1]; compound 0.1 µM): 92% | residual activity ([1]; compound 1.0 µM): 91% | residual activity (MARK4 (human); compound 0.01 µM): 120% | residual activity (MARK4 (human); compound 0.1 µM): 101% | residual activity (MARK4 (human); compound 1.0 µM): 67% | residual activity (EPHA2 (human); compound 0.01 µM): 51% | residual activity (EPHA2 (human); compound 0.1 µM): 15% | residual activity (EPHA2 (human); compound 1.0 µM): 6% | residual activity (MAP3K11 (human); compound 0.01 µM): 105% | residual activity (MAP3K11 (human); compound 0.1 µM): 100% | residual activity (MAP3K11 (human); compound 1.0 µM): 70% | residual activity (MAPKAPK2 (human); compound 0.01 µM): 101% | residual activity (MAPKAPK2 (human); compound 0.1 µM): 100% | residual activity (MAPKAPK2 (human); compound 1.0 µM): 97% | residual activity ([2]; compound 0.01 µM): 108% | residual activity ([2]; compound 0.1 µM): 106% | residual activity ([2]; compound 1.0 µM): 96% | residual activity (INSR (human); compound 0.01 µM): 115% | residual activity (INSR (human); compound 0.1 µM): 106% | residual activity (INSR (human); compound 1.0 µM): 106% | residual activity (PKN2 (human); compound 0.1 µM): 99% | residual activity (PKN2 (human); compound 1.0 µM): 90% | residual activity (PRKCZ (human); compound 0.01 µM): 97% | residual activity (PRKCZ (human); compound 0.1 µM): 104% | residual activity (PRKCZ (human); compound 1.0 µM): 102% | residual activity (PAK4 (human); compound 0.01 µM): 116% | residual activity (PAK4 (human); compound 0.1 µM): 97% | residual activity (PAK4 (human); compound 1.0 µM): 94% | residual activity (MAP3K9 (human); compound 0.01 µM): 101% | residual activity (MAP3K9 (human); compound 0.1 µM): 97% | residual activity (MAP3K9 (human); compound 1.0 µM): 42% | residual activity (PRKCA (human); compound 0.01 µM): 102% | residual activity (PRKCA (human); compound 0.1 µM): 102% | residual activity (PRKCA (human); compound 1.0 µM): 104% | residual activity (MAP3K5 (human); compound 0.01 µM): 110% | residual activity (MAP3K5 (human); compound 0.1 µM): 119% | residual activity (MAP2K2 (human); compound 0.01 µM): 101% | residual activity (MAP2K2 (human); compound 0.1 µM): 96% | residual activity (MAP2K2 (human); compound 1.0 µM): 85% | residual activity (IRAK4 (human); compound 0.01 µM): 90% | residual activity (IRAK4 (human); compound 0.1 µM): 97% | residual activity (IRAK4 (human); compound 1.0 µM): 90% | residual activity (MAPK12 (human); compound 0.01 µM): 110% | residual activity (MAPK12 (human); compound 0.1 µM): 112% | residual activity (MAPK12 (human); compound 1.0 µM): 105% | residual activity (EEF2K (human); compound 0.1 µM): 108% | residual activity (EEF2K (human); compound 1.0 µM): 89%
